Test results published in the supplement of paper PMC10307832.

What was measured:
Assay in all cases: relative viability (nuclei count vs DMSO), 5 days (fraction); higher = more cells survive
[1] = compound: CN1CCN(CC1)C2=CC(=C(C=C2)NC3=NC=C4C(=N3)N(C5=CC=CC=C5C(=O)N4C)C)OC [XMD8-85] + Cc1cc(Nc2cc(N3CCN(C)CC3)nc(Sc3ccc(NC(=O)C4CC4)cc3)n2)n[nH]1 [Tozasertib] (partner 0.1 µM)
Outline: (§1)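 Nuclei were stained with Hoechst during a one-step fixation (final 0.05% Triton X-100, 1% formaldehyde, 1 ug/ml Hoechst) carried out 5 days after dosing, then counted on 4× images. The cells, lung cancer lines in 1536-well plates, had been dosed by pin tool the day after seeding with one drug alone or a fixed anchor-drug dose plus five library-drug doses (not always all listed) in √10 steps. Relative viability is the nuclei count in treated wells divided by that in vehicle wells, and each value is the median of duplicate plates.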

[2] = compound: CN1CCN(CC1)C2=CC(=C(C=C2)NC3=NC=C4C(=N3)N(C5=CC=CC=C5C(=O)N4C)C)OC [XMD8-85] + N=C(N)NC(=N)NCCc1ccccc1 [Phenformin] (partner 250 µM)
Outline: as §1

[3] = compound: O=C(O)C(Cc1ccccc1[N+](=O)[O-])=NNc1nc(-c2ccc(Cl)c(Cl)c2)cs1 (mixture of isomers) [4EGI-1] + CC(C)C[C@H](NC(=O)[C@H](Cc1ccccc1)NC(=O)c1cnccn1)B(O)O [Bortezomib] (partner 0.002 µM)
Outline: as §1

[4] = compound: O=C(O)C(Cc1ccccc1[N+](=O)[O-])=NNc1nc(-c2ccc(Cl)c(Cl)c2)cs1 (mixture of isomers) [4EGI-1] + CS(=O)(=O)CCNCc1ccc(-c2ccc3ncnc(Nc4ccc(OCc5cccc(F)c5)c(Cl)c4)c3c2)o1 [Lapatinib] (partner 2 µM)
Outline: as §1

Row | Cell Line | relative viability ([1]; first compound 0.08 µM) | relative viability ([1]; first compound 0.253 µM) | relative viability ([1]; first compound 0.8 µM) | relative viability ([1]; first compound 2.53 µM) | relative viability ([1]; first compound 8 µM) | relative viability ([2]; first compound 0.08 µM) | relative viability ([2]; first compound 0.253 µM) | relative viability ([2]; first compound 0.8 µM) | relative viability ([2]; first compound 2.53 µM) | relative viability ([3]; first compound 0.5 µM) | relative viability ([3]; first compound 1.581 µM) | relative viability ([3]; first compound 5 µM) | relative viability ([3]; first compound 15.81 µM) | relative viability ([3]; first compound 50 µM) | relative viability ([4]; first compound 0.5 µM) | relative viability ([4]; first compound 1.581 µM) | relative viability ([4]; first compound 5 µM) | relative viability ([4]; first compound 15.81 µM) | relative viability ([4]; first compound 50 µM) | relative viability ([2]; first compound 8 µM)
1 | LXF-289 | 0.194 | 0.216 | 0.171 | 0.142 | 0.166 | 0.524 | 0.542 | 0.525 | 0.553 | 1.06 | 1.06 | 1 | 0.876 | 0.443 | 0.893 | 0.912 | 0.893 | 0.763 | 0.677 | 
2 | NCI-H1355 | 0.473 | 0.467 | 0.525 | 0.376 | 0.314 | 0.417 | 0.409 | 0.422 | 0.437 | 1.32 | 1.17 | 1.11 | 1.18 | 0.545 | 1.11 | 0.931 | 1.03 | 0.989 | 0.586 | 0.408
3 | NCI-H596 | 0.75 | 0.834 | 0.975 | 0.728 | 0.488 | 0.571 | 0.749 | 0.636 | 0.709 | 1 | 0.932 | 1.05 | 0.986 | 0.789 | 1.07 | 1.03 | 1.23 | 0.958 | 0.609 | 0.8
